Data from ChEMBL document CHEMBL1131548, “Synthesis and biological evaluation of two analogues of (S)-alpha-methyl-3-carboxyphenylalanine” (Bioorg Med Chem Lett, 1998).
One block for each molecule: values may come before it. The source made the active and inactive calls. The rule behind the calls is not given here.

Assays:
Rattus norvegicus = organism: Rattus norvegicus; experiment: Compound was evaluated for its antagonist activity and inhibition of forskolin-stimulated cAMP formation by L-AP4 (10 uM), in adult rat cortical slices; format: functional
[1] = molecular target: Metabotropic glutamate receptor 6 (Homo sapiens) (UniProt O15303); experiment: Compound was evaluated for its agonist activity against mGluR6 in Chinese hamster ovary (CHO) cells; Inactive; format: functional, cell-based
Sequence of Metabotropic glutamate receptor 6 (Homo sapiens) (O15303 whole entry): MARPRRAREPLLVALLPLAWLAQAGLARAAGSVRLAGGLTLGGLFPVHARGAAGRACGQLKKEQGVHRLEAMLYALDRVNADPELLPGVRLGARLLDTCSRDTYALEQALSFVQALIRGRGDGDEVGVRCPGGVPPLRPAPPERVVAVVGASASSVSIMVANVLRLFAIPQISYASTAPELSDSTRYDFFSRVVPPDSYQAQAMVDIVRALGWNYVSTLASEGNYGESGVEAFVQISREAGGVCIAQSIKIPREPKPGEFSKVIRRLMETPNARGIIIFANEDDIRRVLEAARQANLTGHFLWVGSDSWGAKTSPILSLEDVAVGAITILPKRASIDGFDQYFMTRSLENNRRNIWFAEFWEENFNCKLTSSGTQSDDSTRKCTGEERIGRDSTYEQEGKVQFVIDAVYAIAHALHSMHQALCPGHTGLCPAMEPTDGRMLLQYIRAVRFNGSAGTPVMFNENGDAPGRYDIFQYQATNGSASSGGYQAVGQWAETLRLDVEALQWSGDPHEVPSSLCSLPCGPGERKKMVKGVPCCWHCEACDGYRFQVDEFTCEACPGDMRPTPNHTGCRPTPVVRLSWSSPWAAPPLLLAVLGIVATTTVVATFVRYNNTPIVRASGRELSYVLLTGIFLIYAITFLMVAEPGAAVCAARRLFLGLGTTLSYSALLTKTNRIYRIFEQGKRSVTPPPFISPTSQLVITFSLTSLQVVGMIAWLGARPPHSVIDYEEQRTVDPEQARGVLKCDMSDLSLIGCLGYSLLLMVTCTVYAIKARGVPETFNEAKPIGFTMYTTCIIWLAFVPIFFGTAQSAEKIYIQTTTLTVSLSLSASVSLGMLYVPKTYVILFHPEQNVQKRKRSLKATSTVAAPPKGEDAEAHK

[2] = molecular target: Metabotropic glutamate receptor 6 (Homo sapiens) (UniProt O15303); experiment: Compound was evaluated for its agonist activity against mGluR6 in Chinese hamster ovary (CHO) cells at a concentration of 300 uM; format: functional, cell-based

IC50 (Rattus norvegicus): 1 µM
Compound: C[C@](N)(Cc1cccc(C(=O)O)c1)C(=O)O

inhibition [1]: inactive
Compound: C[C@@]1(C(=O)O)Cc2cc(C(=O)O)ccc2CN1

inhibition [2]: 27%
Compound: C[C@](N)(Cc1cccc(P(=O)(O)O)c1)C(=O)O
